Experimental data from patent publication US20250115598A1 (Anaxis Pharma Pty Ltd, priority 2021, published 2025).

Assays:
human MLKL (full length) = human MLKL (full length) (Homo sapiens (Human), UniProt Q8NB16); experiment: KINOMEscan binding assay, human MLKL (full length); conditions: hMLKL, Table 25; read-out: MLKL (KD)
Method in brief: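 KINOMEscan competition binding using kinase-tagged T7 phage or HEK-293-produced DNA-tagged protein captured on ligand beads, with eluted protein quantified by qPCR. Compounds were run as an 11-point 3-fold series, top 30,000 nM, in 1% DMSO. Kd was fitted with the Hill equation, slope fixed at −1.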

endogenous MLKL in U937 = endogenous MLKL in U937 (Homo sapiens (Human), UniProt Q8NB16); experiment: Degradation assay: endogenous MLKL in U937 (western blot); conditions: U937, 24 h incubation, read-out: Degradation of endogenous MLKL in U937 (DC50 cell-based assay)
endogenous MLKL in U937, sequence (Q8NB16 whole entry): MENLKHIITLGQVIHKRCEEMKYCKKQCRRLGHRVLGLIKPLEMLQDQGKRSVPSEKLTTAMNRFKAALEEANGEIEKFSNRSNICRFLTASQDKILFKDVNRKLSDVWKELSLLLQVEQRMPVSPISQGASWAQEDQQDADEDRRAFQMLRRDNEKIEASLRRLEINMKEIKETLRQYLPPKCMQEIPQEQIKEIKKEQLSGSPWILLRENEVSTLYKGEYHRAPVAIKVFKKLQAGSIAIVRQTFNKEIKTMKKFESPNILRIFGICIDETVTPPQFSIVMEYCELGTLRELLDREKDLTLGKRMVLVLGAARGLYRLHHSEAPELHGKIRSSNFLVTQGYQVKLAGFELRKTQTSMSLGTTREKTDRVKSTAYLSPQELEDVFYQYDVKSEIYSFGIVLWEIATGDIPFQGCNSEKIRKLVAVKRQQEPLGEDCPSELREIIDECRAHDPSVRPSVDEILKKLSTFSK
Description: Degradation Assay: Screening Compounds Procedure to Evaluate the Activity of Compounds in Degrading Endogenous MLKL in Human and Mouse Cell
The mouse dermal fibroblast (MDF) cell line was seeded the day before the experiment in a 24-well plate at a cell density of […] per well in a volume of 0.5 mL per well and left to attach overnight. The human monocyte cell line (U937) was seeded on the day of the experiment in a 24-well plate at a cell density of […] per well in a volume of 0.5 mL per well.
The compound was diluted in DMSO with a starting concentration of 10 mM and titrated stepwise with a dilution of 1:5. 0.5 μL of the compound dilution was added to the appropriate well to achieve a final concentration of 10; 2; 0.4; 0.08 and 0.016 μM. A DMSO only well was included as control.
The cells were incubated for 24 h in the presence of the compound at 37° C. and 10% CO2.
After the 24 h incubation period, the medium was removed and cells washed with 0.5 mL PBS. The cells were then lysed directly in 60 μL of 1×SDS gel loading buffer.
The cell lysate was heat-denatured at […] for 10 min. 10 μL of lysate per well were run on 18-well 4-15% Criterion TGX stain free gels (BIO-RAD). The proteins were then transferred onto nitrocellulose membrane with a wet transfer protocol in the Criterion Blotter (BIO-RAD).
Membranes were blocked with 5% skim milk in TBST. Primary antibody against MLKL (clone 3H1, MABC604 Merck) was used at 1:2000 dilution in TBST with 1% BSA and left shaking over night at 4° C. After washes with TBST, the membranes were incubated with goat anti-rat IgG HRP-conjugated antibody (Southern Biotech) in 1% skim milk TBST at 1:10000 dilution for 1 h at room temperature. After TBST washes the bands were imaged on the ChemiDoc MP Imaging System (BIO-RAD) with Immobilion Western Chemiluminescent HRP Substrate Forte (Millipore). The loading control GAPDH was probed for with rabbit anti-GAPDH (CST 14C10) at 1:2000 dilution in 1% BSA TBST over night at 4° C. TBST washes were followed by incubation with goat anti-rabbit IgG HRP-conjugated antibody (Southern Biotech) in 1% skim milk TBST at 1:10000 dilution for 1 h at room temperature followed by TBST washes. The signal was detected as described above.
The band intensity was measured in the ImageLab Software (BIO-RAD) and the MLKL values adjusted for loading with GAPDH. The percentage of degradation was calculated by normalizing the compound treated values to the DMSO only control.

[1] = test system: Immortalised Mouse Dermal Fibroblasts (MDFs); experiment: Cellular assay: inhibition of TSI induced necroptosis, CellTitre-Glo viability; conditions: Mus musculus, Fibroblast; MDF, 3 hours TSI cocktail, Table 27; read-out: Inhibition of TSI-induced necroptosis (IC50 cell-based assay) in MDF
Method in brief: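 Immortalised mouse dermal fibroblasts (2200 cells/well) pretreated 30 min with compound, 10-point 1:3 series from 36 μM, 0.3% DMSO. Then 3 h at 37° C. with TNF (100 ng/ml), Smac mimetic (500 nM) and IDN-6556 (10 μM). CellTiter-Glo luminescence normalised to DMSO (100%) and DMSO+TSI (0%); IC50 from 4-parameter logistic fit.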

endogenous MLKL in MDF = endogenous MLKL in MDF (Mus musculus (Mouse), UniProt Q9D2Y4); experiment: Degradation assay: endogenous MLKL in MDF (western blot); conditions: MDF cells, 24 h incubation with compound, MLKL adjusted for loading with GAPDH, normalized to DMSO only control, read-out: Degradation of endogenous MLKL in MDF (DC50 cell-based assay)
endogenous MLKL in MDF, sequence (Q9D2Y4 whole entry): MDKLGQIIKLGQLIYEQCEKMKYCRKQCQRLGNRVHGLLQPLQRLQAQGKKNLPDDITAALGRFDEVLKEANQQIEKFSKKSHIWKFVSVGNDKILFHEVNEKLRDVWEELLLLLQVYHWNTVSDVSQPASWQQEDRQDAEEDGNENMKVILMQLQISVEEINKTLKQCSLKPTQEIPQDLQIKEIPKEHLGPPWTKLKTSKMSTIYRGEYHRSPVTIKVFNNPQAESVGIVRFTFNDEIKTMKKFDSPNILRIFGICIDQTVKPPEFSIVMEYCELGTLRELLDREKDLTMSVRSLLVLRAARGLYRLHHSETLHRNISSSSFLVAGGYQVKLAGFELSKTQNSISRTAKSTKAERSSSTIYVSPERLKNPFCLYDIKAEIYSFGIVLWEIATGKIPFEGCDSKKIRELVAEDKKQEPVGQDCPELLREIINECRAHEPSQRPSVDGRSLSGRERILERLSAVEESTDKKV
Method in brief: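 MDF (seeded the day before) or U937 cells were treated 24 h at 37 °C, 10% CO2 with compound at 10, 2, 0.4, 0.08 and 0.016 μM final. Endogenous MLKL was quantified by western blot (anti-MLKL 3H1), normalized to GAPDH. Percent degradation was taken relative to DMSO control.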

human MLKL (full length), sequence (Q8NB16 whole entry): as the sequence (Q8NB16 whole entry) above

| Kd (human MLKL (full length)) [nM] | DC50 (endogenous MLKL in U937) [nM] | DC50 (endogenous MLKL in MDF) [nM] | Compound | IC50 [1] [nM] |
| --- | --- | --- | --- | --- |
| < 10 | 1000 to 10000 |  | Cc1ncsc1-c1ccc(CNC(=O)[C@@H]2C[C@@H](O)CN2C(=O)[C@@H](NC(=O)CCOCCCn2cc(-c3cnc(N)c4c(-c5ccc(NS(=O)(=O)C(F)F)c(O[C@@H](C)c6ccc(F)cc6)c5)nn(C)c34)cn2)C(C)(C)C)cc1 [Compound 1040, (2S,4R)-1-[(2S)-2-{3-[3-(4-{4-amino-3-[4-(difluoromethanesulfonamido)-3-[(1S)-1-(4-fluorophenyl)ethoxy]phenyl]-1-methyl-1H-pyrazolo[4,3-c]pyridin-7-yl}-1H-pyrazol-1-yl)propoxy]propanamido}-3,3-dimethylbutanoyl]-4-hydroxy-N-{[4-(4-methyl-1,3-thiazol-5-yl)phenyl]methyl}pyrrolidine-2-carboxamide] |  |
| 10 to 1000 | 1000 to 10000 |  | Cc1ncsc1-c1ccc(CNC(=O)[C@@H]2C[C@@H](O)CN2C(=O)[C@@H](NC(=O)CCCCCCC#Cc2cnc(N)c3c(-c4ccc(NS(=O)(=O)C(F)F)c(F)c4)nn(C)c23)C(C)(C)C)cc1 [Compound 1052, (2S,4R)-1-[(2S)-2-(9-{4-amino-3-[4-(difluoromethanesulfonamido)-3-fluorophenyl]-1-methyl-1H-pyrazolo[4,3-c]pyridin-7-yl}non-8-ynamido)-3,3-dimethylbutanoyl]-4-hydroxy-N-{[4-(4-methyl-1,3-thiazol-5-yl)phenyl]methyl}pyrrolidine-2-carboxamide] |  |
| < 10 | < 1000 |  | Cc1ncsc1-c1ccc(CNC(=O)[C@@H]2C[C@@H](O)CN2C(=O)[C@@H](NC(=O)COCCOCC#Cc2cnc(N)c3c(-c4ccc(NS(=O)(=O)C(F)F)c(O[C@@H](C)c5ccc(F)cc5)c4)nn(C)c23)C(C)(C)C)cc1 [Compound 1075, (2S,4R)-1-[(2S)-2-(2-{2-[(3-{4-amino-3-[4-(difluoromethanesulfonamido)-3-[(1S)-1-(4-fluorophenyl)ethoxy]phenyl]-1-methyl-1H-pyrazolo[4,3-c]pyridin-7-yl}prop-2-yn-1-yl)oxy]ethoxy}acetamido)-3,3-dimethylbutanoyl]-4-hydroxy-N-{[4-(4-methyl-1,3-thiazol-5-yl)phenyl]methyl}pyrrolidine-2-carboxamide] |  |
| < 10 | < 1000 |  | C[C@H](Oc1cc(-c2nn(C)c3c(C#CCCCCCCNC(=O)COc4cccc5c4C(=O)N(C4CCC(=O)NC4=O)C5=O)cnc(N)c23)ccc1NS(=O)(=O)C(F)F)c1ccc(F)cc1 (stereo partly drawn) [Compound 1097, N-(8-{4-amino-3-[4-(difluoromethanesulfonamido)-3-[(1S)-1-(4-fluorophenyl)ethoxy]phenyl]-1-methyl-1H-pyrazolo[4,3-c]pyridin-7-yl}oct-7-yn-1-yl)-2-{[2-(2,6-dioxopiperidin-3-yl)-1,3-dioxo-2,3-dihydro-1H-isoindol-4-yl]oxy}acetamide] |  |
| 10 to 1000 |  | < 1000 | C[C@H](Oc1cc(-c2nn(C)c3c(-c4cnn(C5CCN(C(=O)[C@]6(F)C[C@@H](Nc7cccc8c7C(=O)N(C7CCC(=O)NC7=O)C8=O)C6)CC5)c4)cnc(N)c23)ccc1NS(=O)(=O)C(F)F)c1ccc(F)cc1 (stereo partly drawn) [Compound 1111, N-{4-[4-amino-1-methyl-7-(1-{1-[(cis)-3-{[2-(2,6-dioxopiperidin-3-yl)-1,3-dioxo-2,3-dihydro-1H-isoindol-4-yl]amino}-1-fluorocyclobutane-carbonyl]piperidin-4-yl}-1H-pyrazol-4-yl)-1H-pyrazolo[4,3-c]pyridin-3-yl]-2-[(1S)-1-(4-fluorophenyl)ethoxy]phenyl}-1,1-difluoro-methanesulfonamide] | < 1000 |
| < 10 |  | < 1000 | C[C@H](Oc1cc(-c2nn(C)c3c(-c4cnn(C5CCN(C(=O)[C@H]6C[C@H](Nc7cccc8c7C(=O)N(C7CCC(=O)NC7=O)C8=O)C6)C(C)(C)C5)c4)cnc(N)c23)ccc1NS(=O)(=O)C(F)F)c1ccc(F)cc1 (stereo partly drawn) [Compound 1116, N-{4-[4-amino-7-(1-{2,2-dimethyl-1-[(trans)-3-{[2-(2,6-dioxopiperidin-3-yl)-1,3-dioxo-2,3-dihydro-1H-isoindol-4-yl]amino}cyclobutanecarbonyl]piperidin-4-yl}-1H-pyrazol-4-yl)-1-methyl-1H-pyrazolo[4,3-c]pyridin-3-yl]-2-[(1S)-1-(4-fluorophenyl)ethoxy]phenyl}-1,1-difluoromethanesulfonamide] | 1000 to 10000 |
| < 10 |  | < 1000 | C[C@H](Oc1cc(-c2nn(C)c3c(-c4cnn(C5CCN(C(=O)C6CC(N(C)c7cccc8c7C(=O)N(C7CCC(=O)NC7=O)C8=O)C6)CC5)c4)cnc(N)c23)ccc1NS(=O)(=O)C(F)F)c1ccc(F)cc1 (stereo partly drawn) [Compound 1119, N-{4-[4-amino-1-methyl-7-(1-{1-[(trans)-3-{[2-(2,6-dioxopiperidin-3-yl)-1,3-dioxo-2,3-dihydro-1H-isoindol-4-yl](methyl)amino}cyclobutanecarbonyl]piperidin-4-yl}-1H-pyrazol-4-yl)-1H-pyrazolo[4,3-c]pyridin-3-yl]-2-[(1S)-1-(4-fluorophenyl)ethoxy]phenyl}-1,1-difluoromethanesulfonamide] | < 1000 |
| 10 to 1000 |  | < 1000 | C[C@H](Oc1cc(-c2nn(C)c3c(-c4cnn(C5CCN(CCN6CCCC(COc7cccc8c7C(=O)N(C7CCC(=O)NC7=O)C8=O)C6)CC5)c4)cnc(N)c23)ccc1NS(=O)(=O)C(F)F)c1ccc(F)cc1 (stereo partly drawn) [Compound 1132, N-(4-{4-amino-7-[1-(1-{2-[3-({[2-(2,6-dioxopiperidin-3-yl)-1,3-dioxo-2,3-dihydro-1H-isoindol-4-yl]oxy}methyl)piperidin-1-yl]ethyl}piperidin-4-yl)-1H-pyrazol-4-yl]-1-methyl-1H-pyrazolo[4,3-c]pyridin-3-yl}-2-[(1S)-1-(4-fluorophenyl)ethoxy]phenyl)-1,1-difluoromethanesulfonamide] | < 1000 |
| 10 to 1000 |  | < 1000 | C[C@H](Oc1cc(-c2nn(C)c3c(-c4cnn(C5CCC(C(=O)N6CC(Nc7cccc8c7C(=O)N(C7CCC(=O)NC7=O)C8=O)C6)CC5)c4)cnc(N)c23)ccc1NS(=O)(=O)C(F)F)c1ccc(F)cc1 (stereo partly drawn) [Compound 1133, N-[4-(4-amino-7-{1-[4-(3-{[2-(2,6-dioxopiperidin-3-yl)-1,3-dioxo-2,3-dihydro-1H-isoindol-4-yl]amino}azetidine-1-carbonyl)cyclohexyl]-1H-pyrazol-4-yl}-1-methyl-1H-pyrazolo[4,3-c]pyridin-3-yl}-2-[(1S)-1-(4-fluorophenyl)ethoxy]phenyl]-1,1-difluoromethanesulfonamide] | 1000 to 10000 |

| Compound | Kd (human MLKL (full length)) [nM] | DC50 (endogenous MLKL in U937) [nM] | DC50 (endogenous MLKL in MDF) [nM] | IC50 [1] [nM] |
| --- | --- | --- | --- | --- |
| (2S,4R)-1-[(2S)-2-(9-{4-amino-3-[4-(difluoromethanesulfonamido)-3-fluorophenyl]-1-methyl-1H-pyrazolo[4,3-c]pyridin-7-yl}non-8-ynamido)-3,3-dimethylbutanoyl]-4-hydroxy-N-{[4-(4-methyl-1,3-thiazol-5-yl)phenyl]methyl}pyrrolidine-2-carboxamide [Compound 1046] |  | < 1000 |  |  |
